The results in this text go back to the Kinase Knowledgebase extract (Sharma et al. 2016).

Each structure is given as a SMILES string.

A word on the IC50: it is the concentration that gives 50% inhibition.

In this assay the target is MAPK14 (human) (UniProt Q16539). Briefly: Assessment of MAPK14 Kinase Activity.
Chain of MAPK14 (human) (Q16539 whole entry, looked up): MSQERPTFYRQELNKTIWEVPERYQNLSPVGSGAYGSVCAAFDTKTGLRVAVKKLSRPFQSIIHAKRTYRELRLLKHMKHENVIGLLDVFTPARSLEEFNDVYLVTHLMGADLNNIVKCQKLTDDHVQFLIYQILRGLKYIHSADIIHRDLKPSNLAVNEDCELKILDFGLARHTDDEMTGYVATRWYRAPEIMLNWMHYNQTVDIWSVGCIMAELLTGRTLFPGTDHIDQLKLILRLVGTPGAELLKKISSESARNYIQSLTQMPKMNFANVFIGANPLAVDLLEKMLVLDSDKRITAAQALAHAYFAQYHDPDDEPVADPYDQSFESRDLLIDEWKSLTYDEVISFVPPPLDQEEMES
In turn, `CC(=O)Nc1nc(-c2cccc(C)c2)c(-c2ccncc2)s1` registered an IC50 of 8.9 nM.
The compound `CC(=O)Nc1nc(-c2ccc(Cl)cc2)c(-c2ccncc2)s1` yielded an IC50 of 45 nM.
Compound `Cc1cccc(-c2nc(-c3ccc(C(=O)O)cc3)sc2-c2ccncc2)c1` returned an IC50 of 210 nM.
With `CC(=O)Nc1nc(-c2ccc(C)cc2)c(-c2ccncc2)s1` the figure was 76 nM; with `CCc1ccc(-c2nc(-c3cccc(C)c3)c(-c3cc[n+]([O-])cc3)s2)cc1`, 1700 nM.
With `Cc1cccc(-c2nc(C)sc2-c2ccncc2)c1` the figure was 27 nM.
Turning to `Cc1cccc(-c2nc(-c3ccc([S+](C)[O-])cc3)sc2-c2ccncc2)c1` (centres undefined), the IC50 was found to be 15 nM.
With `Cc1cccc(-c2nc(-c3ccccc3C)sc2-c2ccncc2)c1` the figure was 69 nM; with `CC(=O)Nc1nc(-c2ccccc2C)c(-c2ccncc2)s1`, 340 nM.
`CS(=O)(=O)c1ccc(-c2nc(-c3ccc(F)cc3)c(-c3ccncc3)s2)cc1` came in with an IC50 of 51 nM. Compared with the last compound, the IC50 is about 6.7-fold lower.
With `Cc1cccc(-c2nc(-c3ccc(O)cc3)sc2-c2ccncc2)c1` the figure was 5.3 nM; with `COc1cccc(-c2nc(NC(C)=O)sc2-c2ccncc2)c1`, 73 nM.
`CC(=O)N(C)c1nc(-c2cccc(C)c2)c(-c2ccncc2)s1`: the IC50 came out at 48 nM.
As for `Cc1cccc(-c2nc(N)sc2-c2ccncc2)c1`, the IC50 is 7.3 nM.
In turn, `CSc1ccc(-c2nc(-c3cccc(C)c3)c(-c3ccncc3)s2)cc1` showed an IC50 of 22 nM.
As for `CC(=O)Nc1nc(-c2cccc(F)c2)c(-c2ccncc2)s1`, the IC50 was 140 nM. This IC50 lies about 6.4-fold higher than the previous one.
With `COc1ccc(-c2nc(NC(C)=O)sc2-c2ccncc2)cc1` the figure was 74 nM; with `Cc1cccc(-c2nc(C(C)(C)C)sc2-c2ccncc2)c1`, 31 nM; with `Cc1cccc(-c2nc(-c3ccccc3)sc2-c2ccncc2)c1`, 200 nM.
With `Cc1cccc(-c2nc(-c3cccc(C)c3)c(-c3ccncc3)s2)c1` the figure was 74 nM; with `CC(=O)Nc1nc(-c2cccc(Cl)c2)c(-c2ccncc2)s1`, 43 nM; with `COc1ccccc1-c1nc(NC(C)=O)sc1-c1ccncc1`, 1300 nM.
With `Cc1ccc(-c2nc(-c3cccc(C)c3)c(-c3ccncc3)s2)cc1` the figure was 41 nM; with `CC(=O)Nc1nc(-c2ccccc2Cl)c(-c2ccncc2)s1`, 260 nM.
